Where “and” joins values, the source holds several entries; their conditions need not be identical. Equal entries are not always repeated. Where two headings read alike, the source gives them in different places.
How the values were obtained:
[1] = target: T1, 5-HT1A receptors (Rattus norvegicus, UniProt P19327); parameters: method as in earlier work; conditions: rat hippocampal homogenates; read-out: Ki (in vitro estimate); cited from earlier work
T1 sequence (P19327 1-422): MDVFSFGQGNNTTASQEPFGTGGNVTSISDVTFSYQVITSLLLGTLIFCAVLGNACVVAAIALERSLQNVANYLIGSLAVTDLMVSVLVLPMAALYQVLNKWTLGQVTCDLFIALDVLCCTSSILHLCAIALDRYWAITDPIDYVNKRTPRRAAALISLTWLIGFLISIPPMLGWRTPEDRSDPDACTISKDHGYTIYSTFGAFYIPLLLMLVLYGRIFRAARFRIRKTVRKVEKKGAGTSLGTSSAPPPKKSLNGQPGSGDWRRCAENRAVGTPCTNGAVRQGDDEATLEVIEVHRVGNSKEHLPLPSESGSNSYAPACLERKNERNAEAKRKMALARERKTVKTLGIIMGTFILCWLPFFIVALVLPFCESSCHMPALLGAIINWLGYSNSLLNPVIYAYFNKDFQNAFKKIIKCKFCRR

[2] = target: T1, 5-HT1A receptors; experiment: [11C]WAY-100635-PET, BPND and 5-HT1A receptor occupancy; type: in vivo; parameters: Twenty-micrometer-thick frozen brain sections were preincubated; from tissue; host or cells: rat brain (hippocampus and raphe nucleus): frozen sections or living animals; conditions: for BPND Hippocampus / BPND Raphe: [11C]WAY-100635, about 5 h before scan, mean ± S.E.; for receptor occupancy at 1 mg/kg / receptor occupancy at 3 mg/kg / receptor occupancy at 10 mg/kg / receptor occupancy at 30 mg/kg / receptor occupancy at 100 mg/kg: rat
Procedure: All PET scans were carried out using a microPET Focus 220 scanner (Siemens Medical Solutions USA, Knoxville, TN). The rats were anesthetized with 1.5–2% isoflurane in air (2 L/min flow rate). […] All list-mode data were stored into 3D sinograms, which were then Fourier-rebinned into 2D sinograms (26 frames: 4×1, 8×2, and 14×5 min). Images were reconstructed using 2D-filtered back-projection with a 0.5-mm Hanning filter. All PET images were manually coregistered to the MRI template by spatial translation and rotation of original PET images without geometric expansion and contraction. ROIs were placed on the hippocampus and raphe nucleus using PMOD® image analysis software (PMOD Group, Zurich, Switzerland) with reference to the MRI template. Fine-tuning of the location of ROIs was then performed based on PET images at an early phase (0–30 min) of the scan in order to compensate for small mismatches between coregistered PET and MR images. The cerebellum was used as reference tissue because of its negligible density of 5-HT1A receptors.

[3] = target: T1, 5-HT1A receptors; experiment: [11C]WAY-100635-PET of rats treated with 5,7-DHT, a toxicant for 5-HT neurons; conditions: 30 mg/kg oral
[4] = target: T1, 5-HT1A receptors; experiment: [18F]MPPF PET, BPND and 5-HT1A receptor occupancy; type: in vivo; parameters: Rats were sacrificed by decapitation; Twenty-micrometer-thick frozen brain sections were preincubated; from tissue; host or cells: rat brain (hippocampus and raphe nucleus): frozen sections or living animals; conditions: mean ± S.E.; for receptor occupancy at 30 mg/kg: rat
[5] = target: T1, 5-HT1A receptors; experiment: Autoradiographic [35S]GTPγS binding in rat brain sections; type: biochemical; parameters: Twenty-micrometer-thick frozen brain sections were preincubated; from tissue; host or cells: rat brain (hippocampus and raphe nucleus): frozen sections or living animals; conditions: raphe nucleus; 10 µM; p<0.01; increment smaller than that by 8-OH-DPAT
Procedure: Autoradiographic procedures were performed as described previously, with some modifications. The sections were preincubated for 15 min in 50 mM 4-(2-hydroxyethyl)-1-piperazineethanesulfonic acid (HEPES; pH 7.4) containing 10 mM NaCl, 3 mM MgCl2 and 0.2 mM ethylene glycol tetraacetic acid. A second preincubation using the same buffer containing 2 mM GDP was performed for 15 min. The sections were subsequently incubated in the same buffer containing 2 mM GDP, 0.2 mM dithiothreitol and 0.04 nM [^35S]GTPγS for 120 min. Basal [^35S]GTPγS binding was defined in the absence of test drugs. […] Nonspecific binding was estimated using 10 µM nonradioactive GTPγS. The incubation was terminated by ice-cold 50 mM HEPES (pH 7.0). The sections were desalted with ice-cold distilled water, dried, and placed in contact with an imaging plate for 2 days. Signal detection and image analysis were performed as described above.

[6] = Brain-to-plasma ratio of Wf-516; type: in vivo; conditions: at the time of reaching maximal plasma concentration, unpublished data
[7] = target: T1, 5-HT1A receptors; experiment: In vitro ARG, inhibition of [11C]WAY-100635 binding in rat brain sections; parameters: Twenty-micrometer-thick frozen brain sections were preincubated; from tissue; host or cells: rat brain (hippocampus and raphe nucleus): frozen sections or living animals; conditions: for Ki: 0.9 nM [11C]WAY-100635
Procedure: Rats were sacrificed by decapitation. Twenty-micrometer-thick frozen brain sections were preincubated for 30 min in 50 mM Tris-HCl (pH 7.4) containing 1 mM MnCl2. […] Subsequently, the sections were rinsed twice with ice-cold Tris-HCl buffer for 5 min and then desalted with ice-cold distilled water for 10 sec. These samples were warmly blow-dried and placed in contact with an imaging plate (Fuji Film, Tokyo, Japan) for 60 min. Signals on the imaging plate were detected by BAS5000 system (Fuji Film).

[8] = tested on: 5-HTTs; parameters: method as in PMID 19236731; conditions: cited from earlier work
[9] = po, read-out: Occupancy (%) Hippocampus
[10] = po, read-out: Occupancy (%) Raphe

BPND Hippocampus ([2]; 1 mg/kg oral): 5.612±0.356 | BPND Raphe ([2]; 1 mg/kg oral): 2.128±0.109 | BPND Hippocampus ([2]; 3 mg/kg oral): 5.589±0.410 | BPND Raphe ([2]; 3 mg/kg oral): 2.024±0.097 | BPND Hippocampus ([2]; 10 mg/kg oral): 4.937±0.550 | BPND Raphe ([2]; 10 mg/kg oral): 1.620±0.126 | BPND Hippocampus ([2]; 30 mg/kg oral): 4.836±0.441 | BPND Raphe ([2]; 30 mg/kg oral): 1.271±0.194 | BPND Hippocampus ([2]; 100 mg/kg oral): 4.962±0.400 | BPND Raphe ([2]; 100 mg/kg oral): 1.212±0.073 | Difference in maximal occupancy between hippocampus and raphe nucleus ([2]; oral, PET regression curves): more than 2.5 fold | Maximal occupancy as calculated by the regression curve ([2]; raphe nucleus, oral, PET): 53.8% and ~50% | receptor occupancy at 1 mg/kg [2, 9]: 7 ± 2.7% | receptor occupancy at 3 mg/kg [2, 9]: 6.8 ± 7.1% | receptor occupancy at 10 mg/kg [2, 9]: 18.8 ± 6% | receptor occupancy at 30 mg/kg [2, 9]: 20.3 ± 4.1% | receptor occupancy at 100 mg/kg [2, 9]: 17.8 ± 4.9% | receptor occupancy at 1 mg/kg [2, 10]: 8.5 ± 7.6% | receptor occupancy at 3 mg/kg [2, 10]: 13.2 ± 6.1% | receptor occupancy at 10 mg/kg [2, 10]: 30.6 ± 6.4% | receptor occupancy at 30 mg/kg [2, 10]: 46.3 ± 6.9% | receptor occupancy at 100 mg/kg [2, 10]: 48.2 ± 3.3% | receptor occupancy at 3 mg/kg ([2]; 3 mg/kg oral, PET, read-out: Difference in occupancy between hippocampus and raphe nucleus): ~100% | BPND Hippocampus ([4]; 30 mg/kg): 1.100±0.015 | BPND Raphe ([4]; 30 mg/kg): 0.227±0.027 | receptor occupancy at 30 mg/kg ([4]; read-out: Occupancy (%) Hippocampus): 23.3 ± 1.5% | receptor occupancy at 30 mg/kg ([4]; read-out: Occupancy (%) Raphe): 45.7 ± 6.5% | [35S]GTPγS binding compared with 1 µM WAY-100635 [5]: significantly increased | Kp [6]: ~2 | Blockage of 5-HT1A receptors by excess amounts of drug ([7]; hippocampus and raphe nucleus, up to 1000 nM): near-complete blockage | Ki ([7]; hippocampus): 8.1 nM | Ki ([7]; raphe nucleus): 7.9 nM
Structure (SMILES): Cc1nnc(-c2cc3c(OC[C@@H](O)CN4CCC(c5ccc(Cl)c(Cl)c5)CC4)cccc3o2)o1.Cl [Wf-516, (2S)-1-[4-(3,4-dichlorophenyl)piperidin-1-yl]-3-[2-(5-methyl-1,3,4-oxadiazol-2-yl)benzo[b]furan-4-yloxy]propan-2-ol monohydrochloride]
Ki [1]: 7.4 nM | Change of BPND in 5,7-DHT-treated rats ([3]; hippocampus, compared with baseline): significant decrease of BPND | Change of BPND in 5,7-DHT-treated rats ([3]; raphe nucleus): no additional reduction of BPND | ED50 for blockade of 5-HTTs ([8]; previous PET study): 3 mg/kg | Occupancy of 5-HTT among regions ([8]; previous observation): homogenous among regions
